Measured values: publication PMC7170309, “Imidazopyridine-fused [1,3]diazepinones: modulations of positions 2 to 4 and their impacts on the anti-melanoma activity” (Journal of Enzyme Inhibition and Medicinal Chemistry, 2020)

Legend:
[1] = system: SK-MEL-2; assay: NCI-60 SRB assay, SK-MEL-2 (Melanoma); assay type: cell-based, human; conditions: 10 µM, 48 h; for G%: growth vs untreated control
Experimental: (§1) Primary anticancer assay was performed on a panel of 60 human cancer cell lines derived from nine neoplastic diseases, in accordance with the protocol of the Drug Evaluation Branch, National Cancer Institute, Bethesda, Maryland, USA[22]. Cells were incubated with tested compounds at 10 µM for 48 h. The growth percentage was evaluated spectrophotometrically using a protein binding dye, SRB. Results for each tested compound were reported as the percent of growth of treated cells when compared to untreated control cells.
(§2) To better compare the activity profile of these two series of compounds, compounds 5 and 8 were selected and then evaluated towards a panel of sixty cancer cell lines corresponding to nine different cancer types, i.e. leukaemia, melanoma, as well as lung, colon, central nervous system, ovarian, renal, prostate and breast cancers (NCI evaluation). Indeed, it is now well established that the growth inhibitory patterns of anticancer drugs against the NCI-60 cell line panel correlated well with their modes of action. For example, compounds that bind to tubulin have similar growth inhibition patterns regardless of which site on tubulin they bind[30]. […] Compounds were tested using the sulforhodamine B (SRB) assay that provides a direct cell density index. The amount of dye incorporated by the cells increases with the increase of the total protein biomass. Cells were incubated for 48 h with compounds at 10 µM concentration, then cell growth was evaluated spectrophotometrically and presented as the percent of untreated control cells. Values of the most sensitive cell lines were compared to those obtained with JMV5038 (Figure 4, for all data see SI).

[2] = system: PC-3; assay: NCI-60 SRB assay, PC-3 (Prostate Cancer); assay type: cell-based, human; conditions: 10 µM, 48 h; for G%: growth vs untreated control
Experimental: as §1, §2

[3] = system: HCT-116; assay: NCI-60 SRB assay, HCT-116 (Colon Cancer); assay type: cell-based, human; conditions: 10 µM, 48 h; for G%: growth vs untreated control
Experimental: as §1, §2

[4] = system: LOX IMVI; assay: NCI-60 SRB assay, LOX IMVI (Melanoma); assay type: cell-based, human; conditions: 10 µM, 48 h; for G%: growth vs untreated control
Experimental: as §1, §2

[5] = system: 786-0; assay: NCI-60 SRB assay, 786-0 (Renal Cancer); assay type: cell-based, human; conditions: 10 µM, 48 h; for G%: growth vs untreated control
Experimental: as §1, §2

[6] = system: UACC-257; assay: NCI-60 SRB assay, UACC-257 (Melanoma); assay type: cell-based, human; conditions: 10 µM, 48 h; for G%: growth vs untreated control
Experimental: as §1, §2

[7] = system: BT-549; assay: NCI-60 SRB assay, BT-549 (Breast Cancer); assay type: cell-based, human; conditions: 10 µM, 48 h; for G%: growth vs untreated control
Experimental: as §1, §2

[8] = system: SN12C; assay: NCI-60 SRB assay, SN12C (Renal Cancer); assay type: cell-based, human; conditions: 10 µM, 48 h; for G%: growth vs untreated control
Experimental: as §1, §2

[9] = system: HOP-62; assay: NCI-60 SRB assay, HOP-62 (NSCLC); assay type: cell-based, human; conditions: 10 µM, 48 h; for G%: growth vs untreated control;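 as to Mean G% - G%: mean growth across the NCI-60 panel minus this line's growth with positive meaning more sensitive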
Experimental: as §1, §2

[10] = system: NIH-3T3 non-cancerous cells; assay: Neutral red uptake (NRU) toxicity assay, NIH-3T3; assay type: cell-based; conditions: non-cancerous mouse fibroblasts
Experimental: Melanoma human cancer cell line (A375 and MDA-MB-435) were obtained from ATCC. The NIH-3T3 cell line was generously gifted by the ANSM (French National Agency for Medicines and Health Products Safety, Vendargues, France). Cells were cultured in Dulbecco’s Modified Eagle Medium (DMEM, Sigma Aldrich) supplemented with 10% heat-inactivated foetal calf serum (FCS, Gibco), 2 mM glutamax (Gibco), 100 IU/mL penicillin G sodium (Sigma Aldrich), 100 lU/mL streptomycin sulphate (Sigma Aldrich). The cells were allowed to grow at 37 °C in a fully humidified atmosphere containing 5% CO2.
A viability assay was used to evaluate the cytotoxic activity on A375 and MDA-MB-435 melanoma cells as previously described. According to OCDE/ICCVAM guidance n°129, NRU assay was also used to evaluate the toxicity on the non-cancerous NIH-3T3 cells. Cells were seeded at a final concentration of 2000 cells/well (A375), 3000 cells/well (NIH-3T3) or 7500 cells/well (MDA-MB-435) in 96-well microtiter plates for 24 h. Then, cells were exposed to two negative controls (1% DMSO in culture medium (vehicle) and culture medium alone), or to different compounds freshly dissolved in DMSO, in a range of concentration from 0.01 to 40 µM (six wells per concentration). After 72 h of incubation, cells were stained with new medium containing 50 µg/mL of neutral red (3-amino-7-dimethylamino-2-methylphenazine hydrochloride, Sigma Aldrich) at 37 °C for 2 h. The neutral red medium solution was then removed and the wells were washed with PBS. Finally, 100 µL of solution containing ethanol, acetic acid and water (50/1/49 v/v/v respectively) were added into the wells and the absorbance was measured at 540 nm using the microplate reader 352 Multiscan MS (Labsystems). Cell survival rates were normalised to the absorbance values of untreated control cells. IC50 was obtained using a logistic regression model on Graphpad Prism 5.0 software. Results are given as the mean ± standard deviation (SD) of three independent experiments. Statistical analysis was performed using the Student’s t-test.
Then, all active compounds on the two melanoma cell lines (IC50 < 40 µM) were assessed on the NIH-3T3 mouse fibroblast cell line, in order to check the toxicity of our compounds on non-cancerous cells. […] As a possible modification of the mechanism of action was hypothesised for these two derivatives (see above), this phenomenon could probably be also correlated with the cytotoxicity observed on the NIH-3T3 cell line.

[11] = system: MCF7; assay: NCI-60 SRB assay, MCF7 (Breast Cancer); assay type: cell-based, human; conditions: 10 µM, 48 h; for G%: growth vs untreated control;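 as to Mean G% - G%: mean growth across the NCI-60 panel minus this line's growth with positive meaning more sensitive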
Experimental: as §1, §2

[12] = system: HCT-15; assay: NCI-60 SRB assay, HCT-15 (Colon Cancer); assay type: cell-based, human; conditions: 10 µM, 48 h; for G%: growth vs untreated control
Experimental: as §1, §2

[13] = system: NCI-H23; assay: NCI-60 SRB assay, NCI-H23 (NSCLC); assay type: cell-based, human; conditions: 10 µM, 48 h; for G%: growth vs untreated control
Experimental: as §1, §2

[14] = system: SF-268; assay: NCI-60 SRB assay, SF-268 (CNS Cancer); assay type: cell-based, human; conditions: 10 µM, 48 h; for G%: growth vs untreated control
Experimental: as §1, §2

[15] = system: NCI-H226; assay: NCI-60 SRB assay, NCI-H226 (NSCLC); assay type: cell-based, human; conditions: 10 µM, 48 h; for G%: growth vs untreated control
Experimental: as §1, §2

[16] = system: DU-145; assay: NCI-60 SRB assay, DU-145 (Prostate Cancer); assay type: cell-based, human; conditions: 10 µM, 48 h; for G%: growth vs untreated control
Experimental: as §1, §2

[17] = system: HS 578T; assay: NCI-60 SRB assay, HS 578T (Breast Cancer); assay type: cell-based, human; conditions: 10 µM, 48 h; for G%: growth vs untreated control
Experimental: as §1, §2

[18] = system: MOLT-4; assay: NCI-60 SRB assay, MOLT-4 (Leukemia); assay type: cell-based, human; conditions: 10 µM, 48 h; for G%: growth vs untreated control
Experimental: as §1, §2

[19] = system: U251; assay: NCI-60 SRB assay, U251 (CNS Cancer); assay type: cell-based, human; conditions: 10 µM, 48 h; for G%: growth vs untreated control
Experimental: as §1, §2

[20] = system: SNB-19; assay: NCI-60 SRB assay, SNB-19 (CNS Cancer); assay type: cell-based, human; conditions: 10 µM, 48 h; for G%: growth vs untreated control
Experimental: as §1, §2

[21] = system: NCI-H322M; assay: NCI-60 SRB assay, NCI-H322M (NSCLC); assay type: cell-based, human; conditions: 10 µM, 48 h; for G%: growth vs untreated control
Experimental: as §1, §2

[22] = system: EKVX; assay: NCI-60 SRB assay, EKVX (NSCLC); assay type: cell-based, human; conditions: 10 µM, 48 h
Experimental: as §1, §2

Compound: [N-]=[N+]=NCCCC[C@@H]1NC(c2ccc(Br)cc2)=Nc2nc3ccccn3c2C1=O [Compound 16, (4S)-4-(4-azidobutyl)-2-(4-bromophenyl)-3,4-dihydro-5H-pyrido[1’,2’:1,2]imidazo[4,5-d][1,3]diazepin-5-one]
- Mean G% - G% [1]: -16,61%
- G% [1]: 108,38%
- Mean G% - G% [2]: -10,51%
- G% [2]: 102,28%
- Mean G% - G% [3]: -1,04%
- G% [3]: 92,81%
- Mean G% - G% [4]: 5,56%
- G% [4]: 86,21%
- Mean G% - G% [5]: 0,98%
- G% [5]: 90,79%
- Mean G% - G% [6]: 5,48%
- G% [6]: 86,29%
- Mean G% - G% [7]: -13,82%
- G% [7]: 105,59%
- Mean G% - G% [8]: -4,64%
- G% [8]: 96,41%
- Mean G% - G% [9]: 14,42%
- G% [9]: 77,35%
- IC50 ([10]; 72 h): 9.9 ± 0.51 µM
- IC50 ([10]; Mus musculus, NIH3T3, 72 h): ~10 µM
- Mean G% - G% [11]: 11,80%
- G% [11]: 79,97%
- Mean G% - G% [12]: -6,56%
- G% [12]: 98,33%
- Mean G% - G% [13]: -7,34%
- G% [13]: 99,11%
- Mean G% - G% [14]: 1,04%
- G% [14]: 90,73%
- Mean G% - G% [15]: 3,58%
- G% [15]: 88,19%
- Mean G% - G% [16]: -10,18%
- G% [16]: 101,95%
- Mean G% - G% [17]: -1,51%
- G% [17]: 93,28%
- Mean G% - G% [18]: 4,57%
- G% [18]: 87,20%
- Mean G% - G% [19]: 0,74%
- G% [19]: 91,03%
- Mean G% - G% [20]: -3,35%
- G% [20]: 95,12%
- Mean G% - G% [21]: 0,41%
- G% [21]: 91,36%
- Mean G% - G% [22]: 12,19%
- G% ([22]; growth vs untreated control): 79,58%

Compound: C[C@@H]1NC(c2ccc(Br)cc2)=Nc2nc3ccccn3c2C1=O [JMV5038]
- Mean G% - G% [1]: 6,87%
- G% [1]: 47,37%
- Mean G% - G% [2]: -8,96%
- G% [2]: 63,20%
- Mean G% - G% [3]: 25,02%
- G% [3]: 29,22%
- Mean G% - G% [4]: 1,80%
- G% [4]: 52,44%
- Mean G% - G% [5]: -28,86%
- G% [5]: 83,10%
- Mean G% - G% [6]: -15,71%
- G% [6]: 69,95%
- Mean G% - G% [7]: 4,92%
- G% [7]: 49,32%
- Mean G% - G% [8]: -37,53%
- G% [8]: 91,77%
- Mean G% - G% [9]: -1,60%
- G% [9]: 55,84%
- IC50 ([10]; Mus musculus, NIH3T3, 72 h): > 100 µM
- Mean G% - G% [11]: 33,29%
- G% [11]: 20,95%
- Mean G% - G% [12]: 23,49%
- G% [12]: 30,75%
- Mean G% - G% [13]: 0,57%
- G% [13]: 53,67%
- Mean G% - G% [14]: -29,20%
- G% [14]: 83,44%
- Mean G% - G% [15]: -14,04%
- G% [15]: 68,28%
- Mean G% - G% [16]: -33,50%
- G% [16]: 87,74%
- Mean G% - G% [17]: -17,10%
- G% [17]: 71,34%
- Mean G% - G% [18]: -3,27%
- G% [18]: 57,51%
- Mean G% - G% [19]: 0,29%
- G% [19]: 53,95%
- Mean G% - G% [20]: -28,38%
- G% [20]: 82,62%
- Mean G% - G% [21]: -19,71%
- G% [21]: 73,95%
